{"source": "ChEMBL document CHEMBL6114981", "about": "“Research progress of flavonoids targeting estrogen receptor in the treatment of breast cancer” (Bioorg Med Chem, 2025)", "key": {"[1]": {"test": "Downregulation of ERalpha expression in human MCF7 cells measured for 24 hrs by Western blot analysis", "details": "MCF7, 24 h"}, "MCF7 [2]": {"test_system": "MCF7", "test": "Antiproliferative activity against human MCF7 cells"}, "MCF7 [3]": {"test_system": "MCF7", "test": "Cytotoxicity against human MCF7 cells"}, "Ishikawa": {"test_system": "Ishikawa", "test": "Antiproliferative activity against human Ishikawa cells assessed as reduction in cell viability incubated for 48 hrs by MTT assay"}, "Aromatase": {"molecular_target": "T1, Aromatase (Homo sapiens, UniProt P11511)", "T1 sequence (P11511 whole entry)": "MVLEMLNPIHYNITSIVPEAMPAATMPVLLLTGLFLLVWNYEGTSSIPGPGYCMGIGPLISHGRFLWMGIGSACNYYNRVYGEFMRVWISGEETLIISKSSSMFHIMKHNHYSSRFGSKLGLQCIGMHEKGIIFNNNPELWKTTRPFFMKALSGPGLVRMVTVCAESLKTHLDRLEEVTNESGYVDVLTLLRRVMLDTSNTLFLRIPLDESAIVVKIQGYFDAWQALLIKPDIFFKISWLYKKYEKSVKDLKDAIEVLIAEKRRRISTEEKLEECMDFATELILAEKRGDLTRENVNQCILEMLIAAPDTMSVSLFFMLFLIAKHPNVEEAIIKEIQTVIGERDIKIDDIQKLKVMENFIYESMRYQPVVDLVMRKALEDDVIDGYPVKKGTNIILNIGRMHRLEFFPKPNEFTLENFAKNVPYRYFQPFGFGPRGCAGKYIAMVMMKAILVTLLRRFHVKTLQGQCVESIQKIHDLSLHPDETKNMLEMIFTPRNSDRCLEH", "test": "Binding affinity to human placental aromatase in MCF7 cells assessed as inhibition constant"}, "MCF7 [4]": {"test_system": "MCF7", "test": "Cytotoxicity against human MCF7 cells assessed as reduction in cell viability incubated for 24 hrs by MTT assay", "details": "MCF7, 24 h"}, "HEK-293T": {"test_system": "HEK-293T", "test": "Cytotoxicity against HEK293T cells", "details": "Homo sapiens"}, "MCF7 [5]": {"test_system": "MCF7", "test": "Antiproliferative activity against human MCF-7 cells assessed as reduction in cell viability incubated for 48 hrs by MTT assay", "details": "MCF7, 48 h"}, "MCF7 [6]": {"test_system": "MCF7", "test": "Antiproliferative activity against human MCF7 cells assessed as reduction in cell viability by MTT assay"}, "MDA-MB-231": {"test_system": "MDA-MB-231", "test": "Antiproliferative activity against human MDA-MB-231 cells assessed as reduction in cell viability by MTT assay"}}, "data": [{"smiles": "Cc1cc(OC(F)(F)F)ccc1-c1c(Oc2ccc(/C=C/C(=O)O)cc2)c2ccccc2oc1=O", "values": [{"measurement": "IC50", "setting": "[1]", "result": 810, "unit": "nM"}]}, {"smiles": "CC1=C(c2ccc(O)cc2)[C@H](c2ccc(OCCN3CCCCC3)cc2)Oc2cc(O)ccc21", "note": "[ACOLBIFENE]", "values": [{"measurement": "IC50", "setting": "MCF7 [2]", "result": 0.32, "unit": "nM"}]}, {"smiles": "COc1ccc(C(=O)C2=C(Oc3ccc(/C=C/C(=O)O)cc3)c3ccc(O)cc3OC2)cc1", "values": [{"measurement": "IC50", "setting": "[1]", "result": 100, "unit": "nM"}]}, {"smiles": "COc1cc(O)c2c(=O)cc(-c3ccc(OC)c(-c4c(O)cc(O)c5c(=O)cc(-c6ccc(O)cc6)oc45)c3)oc2c1", "note": "[GINKGETIN]", "values": [{"measurement": "IC50", "setting": "MCF7 [3]", "result": 10000, "unit": "nM"}]}, {"smiles": "COc1cc2c(cc1C(=O)c1ccc(OCCN3CCCCC3)cc1)C=C(c1ccccc1)C(C)(C)O2", "values": [{"measurement": "IC50", "setting": "Ishikawa", "result": 17700, "unit": "nM"}]}, {"smiles": "C=C(C)[C@H]1Cc2c(ccc3c2O[C@@H]2COc4cc(OC)c(OC)cc4[C@@H]2C3=O)O1", "note": "[ROTENONE]", "values": [{"measurement": "Ki", "setting": "Aromatase", "result": 300, "unit": "nM"}]}, {"smiles": "O=c1c(O)c(-c2ccc(O)c(O)c2)oc2cc(O)ccc12", "note": "[FISETIN]", "values": [{"measurement": "IC50", "setting": "MCF7 [3]", "result": 8500, "unit": "nM"}]}, {"smiles": "C[C@@H]1OC(Oc2cc(O)c3c(=O)c(O[C@H]4OC[C@@](O)(CO)[C@@H]4O)c(-c4ccc(O)cc4)oc3c2)[C@H](O)[C@H](O)[C@H]1O", "note": "(stereo partly specified)", "values": [{"measurement": "IC50", "setting": "MCF7 [4]", "result": 48, "unit": "nM"}]}, {"smiles": "CN1CCN(c2ccc(-c3cc(=O)c4ccccc4o3)cc2)CC1", "values": [{"measurement": "IC50", "setting": "MCF7 [2]", "result": 2720, "unit": "nM"}]}, {"smiles": "O=C1C[C@@H](c2ccccc2)Oc2cc(O)cc(O)c21", "note": "[PINOCEMBRIN]", "values": [{"measurement": "Ki", "setting": "Aromatase", "result": 10800, "unit": "nM"}]}, {"smiles": "COc1cc(O)c2c(c1)OC(c1ccc(O)cc1)CC2=O", "note": "(single isomer, unassigned) [SAKURANETIN]", "values": [{"measurement": "Ki", "setting": "Aromatase", "result": 1200, "unit": "nM"}]}, {"smiles": "CC1=C(c2cc(F)cc(F)c2)[C@H](c2ccc(/C=C/CN3CC(CF)C3)cc2)Oc2cc(O)ccc21", "note": "[BEXIRESTRANT]", "values": [{"measurement": "IC50", "setting": "MCF7 [4]", "result": 0.3, "unit": "nM"}]}, {"smiles": "O=C(O)/C=C/c1ccc(Cc2c(-c3ccccc3)c(=O)oc3cc(O)ccc23)cc1", "values": [{"measurement": "IC50", "setting": "[1]", "result": 1180, "unit": "nM"}]}, {"smiles": "CC1=C(c2cc(F)cc(F)c2)[C@@H](c2ccc(/C=C/CN3CC(CF)C3)cc2)Oc2cc(O)ccc21", "values": [{"measurement": "IC50", "setting": "MCF7 [4]", "result": 69.9, "unit": "nM"}]}, {"smiles": "O=c1c(O)c(-c2ccc(O)c(O)c2)oc2cc(O)cc(O)c12", "note": "[QUERCETIN]", "values": [{"measurement": "IC50", "setting": "HEK-293T", "result": 1200, "unit": "nM"}]}, {"smiles": "O=c1oc2cc(O)ccc2c(Oc2ccc(OCCN3CCCCC3)cc2)c1-c1ccc(F)cc1", "values": [{"measurement": "IC50", "setting": "MCF7 [5]", "result": 2190, "unit": "nM"}]}, {"smiles": "COc1ccc(-c2cc(=O)c3c(O)cc(OC)cc3o2)cc1", "note": "[APIGENIN DIMETHYLETHER]", "values": [{"measurement": "Ki", "setting": "Aromatase", "result": 2100, "unit": "nM"}]}, {"smiles": "Cc1cc(OC(F)(F)F)ccc1-c1c(Oc2ccc(/C=C/C(=O)O)cc2)c2ccc(O)cc2oc1=O", "values": [{"measurement": "IC50", "setting": "[1]", "result": 3, "unit": "nM"}]}, {"smiles": "CC1=C(c2ccc(OC(=O)C(C)(C)C)cc2)[C@H](c2ccc(OCCN3CCCCC3)cc2)Oc2cc(OC(=O)C(C)(C)C)ccc21", "values": [{"measurement": "IC50", "setting": "MCF7 [2]", "result": 0.58, "unit": "nM"}]}, {"smiles": "COc1ccc(-c2c(C(=O)c3ccc(OCCN4CCCCC4)cc3)c3ccc(OC)cc3oc2=O)cc1", "values": [{"measurement": "IC50", "setting": "MCF7 [6]", "result": 5700, "unit": "nM"}, {"measurement": "IC50", "setting": "MDA-MB-231", "result": 12700, "unit": "nM"}]}]}
